The numbers were not newly measured in publication PMC4141160, “Peptide Inhibitor of Complement C1, a Novel Suppressor of Classical Pathway Activation: Mechanistic Studies and Clinical Potential” (Frontiers in Immunology, 2014), which cites them from elsewhere.

Data set [1] concerns classical pathway.
Data set [2] has as its target purified C1q. On the set-up: method as in PMID 22906481. The note with it: surface plasmon resonance, read-out: mean equilibrium dissociation constant (KD). (In general: Surface plasmon resonance follows binding to a sensor surface in real time, without labels.)
Data set [3] has as its system CLR of C1q. The settings on record: ELISA. For orientation: ELISA stands for enzyme-linked immunosorbent assay.
For data set [4], the system named is alternative pathway.
Data set [5] concerns C1.
Data set [6] concerns C1q. On the set-up: method as in PMID 20728940.
For data set [7], the system named is transfused human RBCs. On the set-up: method as in PMID 12576307. The note with it: mouse.
The test system of data set [8] is C4a. The note with it: single i.v. injection at 30 mg/kg; ELISA.

For orientation: Kd means the constant that tells how readily two partners part at equilibrium. Take IALILEPICCQERAA [PA]: the “Classical pathway inhibition values using 0.77 mM peptide” value (“Classical pathway inhibition values” for short) in data set [1] is on record as 85%. Moreover, in data set [2], the dissociation constant Kd was 33.3 nM. The “binding to the CLR of C1q” value in data set [3] was “specifically bind to the CLR of C1q”.
For the molecule “PAICQRAEIEACILL [Δ8–22, CPP1 with central region removed, functional peptide of 15 residues]”, the “effect on the alternative pathway” value in data set [4] is reported as “minimal effect”. Moreover, the “Classical pathway inhibition values” value in data set [1] is listed as 70%.
Turning to “PAICQRATATLGTVGSNTSGTTEIEACILL [CPP1, 30-residue PIC1 derivative from the HNP-1 homology region of astrovirus CP]”, the “inhibition of C1 activation, as assayed by C1s cleavage” value in data set [5] was “inhibited C1 activation”. Further, the “inhibition of the binding of CP to C1q” value in data set [6] is recorded as “inhibited the binding of CP to C1q”. Besides, the “Classical pathway inhibition values” value in data set [1] is listed as 50%.
For the molecule sCR1: soluble complement receptor 1, the “hemolysis and C3 and C4 deposition on transfused human RBCs” value in data set [7] is “temporarily inhibit hemolysis as well as C3 and C4 deposition”.

B1: TNT009: humanized monoclonal analog of TNT003 (antibody, chains of the INN, looked up, V domains shown)
VH: EVQLVESGGGLVKPGGSLRLSCAASGFTFSNYAMSWVRQAPGKGLEWVATISSGGSHTYYLDSVKGRFTISRDNSKNTLYLQMNSLRAEDTALYYCARLFTGYAMDYWGQGTLVTVSS
VL: QIVLTQSPATLSLSPGERATMSCTASSSVSSSYLHWYQQKPGKAPKLWIYSTSNLASGVPSRFSGSGSGTDYTLTISSLQPEDFATYYCHQYYRLPPITFGQGTKLEIK
Turning to B1, the “in vivo generation of C4a” value in data set [8] is “inhibited the in vivo generation of C4a”.
